Laboratory results reported in US8207172B2 (Bayer Intellectual Property GmbH, priority 2004, dated 2012).
Counter-ions that a name gives are not always drawn.

Key:
[1] = system: A431 cells (human epidermoid carcinoma); assay: In vitro tumor cell proliferation assay (Cell Titer-Glo luminescent cell viability), A431; format: cell-based; settings: A-431, 72 h, 72 hours of drug exposure, ATP luminescence readout, read-out: IC50, anti-proliferative activity (inhibition of cell proliferation)
How it was run: (§1)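 Proliferation inhibition was measured as ATP-dependent luciferase signal after cells in RPMI with 10% FBS received test compound for 72 h at 37° C. Final concentrations spanned […] to 64 pM in 0.1% DMSO; IC50 values were derived.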

[2] = system: BT474 (human breast carcinoma); assay: In vitro tumor cell proliferation assay (Cell Titer-Glo luminescent cell viability), BT474; format: cell-based; settings: BT-474, 72 h, BT474 cells, 72 hours of drug exposure, ATP luminescence readout, read-out: IC50, anti-proliferative activity (inhibition of cell proliferation)
How it was run: as §1

| Compound | IC50 [1] | IC50 [2] |
| --- | --- | --- |
| Clc1cc(Nc2ncnc3sc4c(c23)CCc2nn(CCn3ccnc3)cc2-4)ccc1OCc1ccccn1 [Example 104, N-[3-chloro-4-(pyridin-2-ylmethoxy)phenyl]-2-[2-(1H-imidazol-1-yl)ethyl]-4,5-dihydro-2H-pyrimido[5′,4′:4,5]thieno[2,3-e]indazol-6-amine] | ≤ 50 µM | ≤ 1 µM |
| CN(C)c1ccc(NC(=O)Cn2ncc3c2CCc2c-3sc3ncnc(Nc4ccc(OCc5cccc(F)c5)c(Cl)c4)c23)cc1 [Example 192, 2-[6-({3-chloro-4-[(3-fluorobenzyl)oxy]phenyl}amino)-4,5-dihydro-3H-pyrimido[5′,4′:4,5]thieno[2,3-e]indazol-3-yl]-N-[4-(dimethylamino)phenyl]acetamide] | ≤ 50 µM | ≤ 5 µM |
| O=C(Cn1cc2c(n1)CCc1c-2sc2ncnc(Nc3ccc(OCc4cccc(F)c4)c(Cl)c3)c12)NCCO [Example 178, 2-[6-({3-chloro-4-[(3-fluorobenzyl)oxy]phenyl}amino)-4,5-dihydro-2H-pyrimido[5′,4′:4,5]thieno[2,3-e]indazol-2-yl]-N-(2-hydroxyethyl)acetamide] | ≤ 50 µM | ≤ 1 µM |
| O[C@H](Cn1ccnc1)Cn1ncc2c1CCc1c-2sc2ncnc(Nc3ccc(OCc4cccc(F)c4)c(Cl)c3)c12 [Example 170, (2R)-1-[6-({3-chloro-4-[(3-fluorobenzyl)oxy]phenyl}amino)-4,5-dihydro-3H-pyrimido[5′,4′:4,5]thieno[2,3-e]indazol-3-yl]-3-(1H-imidazol-1-yl)propan-2-ol trifluoroacetate (salt)] | ≤ 50 µM | ≤ 1 µM |
| CS(=O)(=O)CCNC[C@@H](O)Cn1cc2c(n1)CCc1c-2sc2ncnc(Nc3ccc(OCc4cccc(F)c4)c(Cl)c3)c12 [Example 154, (2R)-1-[6-({3-chloro-4-[(3-fluorobenzyl)oxy]phenyl}amino)-4,5-dihydro-2H-pyrimido[5′,4′:4,5]thieno[2,3-e]indazol-2-yl]-3-{[2-(methylsulfonyl)ethyl]amino} propan-2-ol trifluoroacetate (salt)] | ≤ 50 µM | ≤ 1 µM |
| O[C@H](CN1CCCCC1)Cn1cc2c(n1)CCc1c-2sc2ncnc(Nc3ccc(OCc4cccc(F)c4)c(Cl)c3)c12 [Example 148, (2R)-1-[6-({3-chloro-4-[(3-fluorobenzyl)oxy]phenyl}amino)-4,5-dihydro-2H-pyrimido[5′,4′:4,5]thieno[2,3-e]indazol-2-yl]-3-piperidin-1-ylpropan-2-ol trifluoroacetate (salt)] | ≤ 50 µM | ≤ 1 µM |
| Fc1ccc(Nc2ncnc3sc4c(c23)CCc2nn(CCNCCN3CCOCC3)cc2-4)cc1Cl [Example 7, N-(3-chloro-4-fluorophenyl)-2-{2-[(2-morpholin-4-ylethyl)amino]ethyl]-4,5-dihydro-2H-pyrimido[5′,4′:4,5]thieno[2,3-e]indazol-6-amine] | ≤ 5 µM | ≤ 1 µM |
| Clc1cc(Nc2ncnc3sc4c(c23)CCc2c-4cnn2CCBr)ccc1OCc1ccccn1 [Example 110, 3-(2-bromoethyl)-N-[3-chloro-4-(pyridin-2-ylmethoxy)phenyl]-4,5-dihydro-3H-pyrimido[5′,4′:4,5]thieno[2,3-e]indazol-6-amine] | ≤ 5 µM | ≤ 1 µM |
| O=C(CN(CCO)CCO)N1CCC(Cn2cc3c(n2)CCc2c-3sc3ncnc(Nc4ccc(OCc5cccc(F)c5)c(Cl)c4)c23)CC1 [Example 240, 2,2′-{[2-(4-{[6-({3-chloro-4-[(3-fluorobenzyl)oxy]phenyl}amino)-4,5-dihydro-2H-pyrimido[5′,4′:4,5]thieno[2,3-e]indazol-2-yl]methyl}piperidin-1-yl)-2-oxoethyl]imino}diethanol] | ≤ 5 µM | ≤ 1 µM |
| c1ccc(Cn2ncc3cc(Nc4ncnc5sc6c(c45)CCc4nn(CCN5CCOCC5)cc4-6)ccc32)cc1 [Example 304, N-(1-benzyl-1H-indazol-5-yl)-2-(2-morpholin-4-ylethyl)-4,5-dihydro-2H-pyrimido[5′,4′:4,5]thieno[2,3-e]indazol-6-amine] | ≤ 50 µM | ≤ 1 µM |
| COCCN(CCOC)CCn1ncc2c1CCc1c-2sc2ncnc(Nc3ccc4c(cnn4Cc4cccc(F)c4)c3)c12 [Example 292, 3-{2-[bis(2-methoxyethyl)amino]ethyl}-N-[1-(3-fluorobenzyl)-1H-indazol-5-yl]-4,5-dihydro-3H-pyrimido[5′,4′:4,5]thieno[2,3-e]indazol-6-amine] | ≤ 5 µM | ≤ 1 µM |
| CN(C)C[C@@H](O)Cn1cc2c(n1)CCc1c-2sc2ncnc(Nc3ccc(OCc4cccc(F)c4)c(Cl)c3)c12 [Example 156, (2R)-1-[6-({3-chloro-4-[(3-fluorobenzyl)oxy]phenyl}amino)-4,5-dihydro-2H-pyrimido[5′,4′:4,5]thieno[2,3-e]indazol-2-yl]-3-(dimethylamino)propan-2-ol trifluoroacetate (salt)] | ≤ 50 µM | ≤ 1 µM |

Second part, the molecule after the results:

| IC50 [1] | IC50 [2] | Compound |
| --- | --- | --- |
| ≤ 5 µM | ≤ 5 µM | O[C@@H]1CCN(CCn2cc3c(n2)CCc2c-3sc3ncnc(Nc4ccc(F)c(Cl)c4)c23)C1 [Example 33, (3R)-1-(2-{6-[(3-chloro-4-fluorophenyl)amino]-4,5-dihydro-2H-pyrimido[5′,4′:4,5]thieno[2,3-e]indazol-2-yl}ethyl)-pyrrolidin-3-ol] |
| ≤ 5 µM | ≤ 5 µM | CCCN(CCOC)CCn1cc2c(n1)CCc1c-2sc2ncnc(Nc3ccc(F)c(Cl)c3)c12 [Example 23, N-(3-chloro-4-fluorophenyl)-2-{2-[(2-methoxyethyl)(propyl)amino]ethyl}-4,5-dihydro-2H-pyrimido[5′,4′:4,5]thieno[2,3-e]indazol-6-amine] |
| ≤ 5 µM | ≤ 5 µM | OCCN(CCO)CCn1cc2c(n1)CCc1c-2sc2ncnc(Nc3ccc(F)c(Cl)c3)c12 [Example 26, 2,2′-[(2-{6-[(3-chloro-4-fluorophenyl)amino]-4,5-dihydro-2H-pyrimido[5′,4′:4,5]thieno[2,3-e]indazol-2-yl}ethyl)imino]diethanol] |
| ≤ 5 µM | ≤ 1 µM | OCCn1cc2c(n1)CCc1c-2sc2ncnc(Nc3ccc4c(cnn4Cc4ccccc4)c3)c12 [Example 302, 2-{6-[(1-benzyl-1H-indazol-5-yl)amino]-4,5-dihydro-2H-pyrimido[5′,4′:4,5]thieno[2,3-e]indazol-2-yl}ethanol] |
| ≤ 5 µM | ≤ 1 µM | CN(C)C(=O)Cn1cc2c(n1)CCc1c-2sc2ncnc(Nc3ccc(OCc4cccc(F)c4)c(Cl)c3)c12 [Example 184, 2-[6-({3-chloro-4-[(3-fluorobenzyl)oxy]phenyl}amino)-4,5-dihydro-2H-pyrimido[5′,4′:4,5]thieno[2,3-e]indazol-2-yl]-N,N-dimethylacetamide] |
| ≤ 5 µM | ≤ 1 µM | CS(=O)(=O)CCNCCn1ncc2c1CCc1c-2sc2ncnc(Nc3ccc(OCc4ccccn4)c(Cl)c3)c12 [Example 114, N-[3-chloro-4-(pyridin-2-ylmethoxy)phenyl]-3-(2-{[2-(methylsulfonyl)ethyl]amino}ethyl)-4,5-dihydro-3H-pyrimido[5′,4′:4,5]thieno[2,3-e]indazol-6-amine] |
| ≤ 5 µM | ≤ 1 µM | CN(C)CC(=O)N1CCC(Cn2cc3c(n2)CCc2c-3sc3ncnc(Nc4ccc(OCc5cccc(F)c5)c(Cl)c4)c23)CC1 [Example 241, N-{3-chloro-4-[(3-fluorobenzyl)oxy]phenyl}-2-({1-[(dimethylamino)acetyl]piperidin-4-yl}methyl)-4,5-dihydro-2H-pyrimido[5′,4′:4,5]thieno[2,3-e]indazol-6-amine trifluoroacetate] |
| ≤ 5 µM | ≤ 1 µM | CN(C)C1CCN(C(=O)Cn2ncc3c2CCc2c-3sc3ncnc(Nc4ccc(OCc5cccc(F)c5)c(Cl)c4)c23)C1 (stereo in doubt) [Example 208, N-{3-chloro-4-[(3-fluorobenzyl)oxy]phenyl}-3-{2-[(3S)-3-(dimethylamino)pyrrolidin 1-yl]-2-oxoethyl}-4,5-dihydro-3H-pyrimido[5′,4′:4,5]thieno[2,3-e]indazol-6-amine] |
| ≤ 5 µM | ≤ 1 µM | CN1CCN(CCn2cc3c(n2)CCc2c-3sc3ncnc(Nc4ccc(OCc5ccccc5)c(Cl)c4)c23)CC1 [Example 54, N-[4-(benzyloxy)-3-chlorophenyl]-2-[2-(4-methylpiperazin-1-yl)ethyl]-4,5-dihydro-2H-pyrimido[5′,4′:4,5]thieno[2,3-e]indazol-6-amine] |
| ≤ 5 µM | ≤ 1 µM | Fc1cccc(Cn2ncc3cc(Nc4ncnc5sc6c(c45)CCc4nn(CCN5CCNCC5)cc4-6)ccc32)c1 [Example 284, N-[1-(3-fluorobenzyl)-1H-indazol-5-yl]-2-(2-piperazin-1-ylethyl)-4,5-dihydro-2H-pyrimido[5′,4′:4,5]thieno[2,3-e]indazol-6-amine] |
| ≤ 5 µM | ≤ 1 µM | CC(C)CN1CCC(CCn2cc3c(n2)CCc2c-3sc3ncnc(Nc4ccc(OCc5cccc(F)c5)c(Cl)c4)c23)CC1 [Example 251, N-{3-chloro-4-[(3-fluorobenzyl)oxy]phenyl}-2-[2-(1-isobutylpiperidin-4-yl)ethyl]-4,5-dihydro-2H-pyrimido[5′,4′:4,5]thieno[2,3-e]indazol-6-amine] |
| ≤ 5 µM | ≤ 1 µM | O=C(Cn1ncc2c1CCc1c-2sc2ncnc(Nc3ccc(OCc4cccc(F)c4)c(Cl)c3)c12)N1CC[C@@H](O)C1 [Example 206, (3R)-1-{[6-({3-chloro-4-[(3-fluorobenzyl)oxy]phenyl}amino)-4,5-dihydro-3H-pyrimido[5′,4′:4,5]thieno[2,3-e]indazol-3-yl]acetyl}pyrrolidin-3-ol] |
